Measured values: patent US20220144812A1, “QUINOLINE DERIVATIVES AND THEIR USE FOR THE TREATMENT OF CANCER” (Epizyme, Inc., priority 2019, published 2022)
Read-outs that look alike come from different tables or passages of the source.

Legend:
[1] = tested on: H3K18Ac in HB-CLS-2 cells; assay: H3K18AC in-cell western (ICW) assay; type: cell-based; settings: read-out: CREBBP ICW IC50
Procedure, shortened: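 HB-CLS-2 cells seeded 16–24 hours before 2 hr compound treatment at 37° C, 5% CO2, then methanol-fixed. H3K18Ac detected with rabbit monoclonal primary (overnight, 4° C) and 800CW anti-rabbit secondary; DRAQ5 stained DNA. Plates imaged at 700 and 800 nm for integrated intensity; IC50 in μM.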

[2] = biological target: T1, CREBBP (1084-1701) (Homo sapiens, UniProt Q92793); assay: Biochemical assay for CREBBP (1084-1701), SAMDI; settings: read-out: CREBBP Biochemistry IC50
T1 construct: measured in the following biochemical assay using CREBBP (1084-1701); purchased
T1 sequence (Q92793 1084-1701): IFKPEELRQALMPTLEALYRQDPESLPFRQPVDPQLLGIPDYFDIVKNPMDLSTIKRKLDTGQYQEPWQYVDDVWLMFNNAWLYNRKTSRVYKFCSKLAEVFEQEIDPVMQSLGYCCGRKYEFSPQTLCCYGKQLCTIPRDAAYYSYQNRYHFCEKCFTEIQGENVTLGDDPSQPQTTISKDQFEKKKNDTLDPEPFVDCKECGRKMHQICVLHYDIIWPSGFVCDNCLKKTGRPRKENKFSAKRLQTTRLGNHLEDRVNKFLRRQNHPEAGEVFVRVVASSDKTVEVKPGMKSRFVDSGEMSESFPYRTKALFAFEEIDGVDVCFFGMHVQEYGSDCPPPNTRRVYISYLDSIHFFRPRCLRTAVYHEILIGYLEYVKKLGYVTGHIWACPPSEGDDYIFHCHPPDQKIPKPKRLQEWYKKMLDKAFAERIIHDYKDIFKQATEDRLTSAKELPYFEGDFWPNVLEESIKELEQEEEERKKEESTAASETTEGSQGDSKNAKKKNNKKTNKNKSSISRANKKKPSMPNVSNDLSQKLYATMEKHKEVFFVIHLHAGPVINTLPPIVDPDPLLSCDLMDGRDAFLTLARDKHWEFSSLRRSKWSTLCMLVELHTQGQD
Procedure, shortened: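 CREBBP (1084-1701) preincubated with compound 30 min at RT, then substrate mix (biotin-H3 11-25 K14R/K23R peptide, acetyl-CoA) added for 30 min at RT. Reaction stopped with formic acid, neutralised with sodium bicarbonate. Peptide acetylation read by SAMDI mass spectrometry to derive IC50.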

[3] = tested on: 647V cells; assay: High throughput proliferation (HTP) assay; type: cell-based; settings: read-out: CREBBP HTP IC50
Procedure, shortened: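 Exponentially growing 647V cells in DMEM with 15% FBS were treated in triplicate with increasing compound concentrations at 37° C, 5% CO2. Viable cell number was read by CellTiter-Glo luminescence on day 7; IC50 in micromolar.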

[4] = biological target: T2, EP300 (P300(1048-1664)) (Homo sapiens, UniProt Q09472); assay: Biochemical assay for EP300, SAMDI; settings: read-out: EP300 Biochemistry IC50
T2 construct: P300(1048-1664)
T2 sequence (Q09472 1048-1664): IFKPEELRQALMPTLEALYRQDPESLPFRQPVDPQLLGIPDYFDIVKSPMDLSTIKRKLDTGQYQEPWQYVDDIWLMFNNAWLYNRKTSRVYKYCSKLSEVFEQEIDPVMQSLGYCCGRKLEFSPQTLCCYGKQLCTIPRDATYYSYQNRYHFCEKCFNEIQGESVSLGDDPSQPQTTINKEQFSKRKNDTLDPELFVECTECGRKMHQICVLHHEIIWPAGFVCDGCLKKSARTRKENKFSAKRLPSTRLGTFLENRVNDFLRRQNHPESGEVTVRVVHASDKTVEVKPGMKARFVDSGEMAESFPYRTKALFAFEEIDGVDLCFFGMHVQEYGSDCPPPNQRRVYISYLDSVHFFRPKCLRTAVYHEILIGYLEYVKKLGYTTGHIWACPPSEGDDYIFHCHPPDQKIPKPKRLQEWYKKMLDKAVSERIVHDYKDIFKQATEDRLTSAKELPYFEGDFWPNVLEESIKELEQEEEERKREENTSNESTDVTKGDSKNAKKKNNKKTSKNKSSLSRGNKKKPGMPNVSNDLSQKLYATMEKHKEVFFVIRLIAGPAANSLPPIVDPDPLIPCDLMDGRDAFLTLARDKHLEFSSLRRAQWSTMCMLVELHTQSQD
Text: The following example describes materials and methods relating to a biochemical assay for EP300. IC50 values (micromolar (μM)) are summarized in Table 1, Table 2, and Table 3 under the column labeled: “EP300 Biochemistry IC50 (micromolar).”

[5] = Homo sapiens, 647-V, high throughput proliferation
[6] = H3K18Ac in-cell western, HB-CLS-2 cells
[7] = 2 h, H3K18Ac in HB-CLS-2 cells, 2 hrs compound incubation
[8] = Peptide #233, Acetyl-CoA, SAMDI mass spectrometry
[9] = Homo sapiens, 647-V, 168 h, 647V cells, day 7, CellTiter-Glo
[10] = P300(1048-1664), Peptide #233, Ac-CoA, SAMDI mass spectrometry

SMILES | IC50 ([1]; H3K18Ac in-cell western) [nM] | IC50 ([2]; SAMDI) [nM] | IC50 ([4]; EP300, SAMDI) [nM] | IC50 [3, 5] [nM] | further results
CCn1ncc(CN(C)C(=O)c2nc(-c3ccc(OCCN(C)S(C)(=O)=O)c(OC)c3)nc3ccc(Cl)cc23)c1C [Compound 114] | 2800 | 5200 | 4300 | 2800 | –
CCc1ncc(CN(C)C(=O)c2cc(-c3cc(C(=O)NC)n(C)n3)nc3ccc(C4CC4)cc23)n1C [Compound 636] | – | – | – | – | IC50 [1, 7]: 65.4 nM; IC50 [2, 8]: 24.8 nM; IC50 [3, 9]: 132 nM; IC50 [4, 10]: 5.6 nM
CCn1ncc(CN(C)C(=O)c2cc(-c3ccc(OCCNC)c(C)n3)nc3ccc(Cl)cc23)c1C [Compound 442] | 195 | 76.9 | 414 | 350 | –
CCn1ncc(CN(C)C(=O)c2cc(-c3cc(-c4ncc[nH]4)n(C)n3)nc3ccc(COC)cc23)c1C [Compound 550] | 128 | 32.2 | 14.1 | 247 | –
CCc1cc(CN(C)C(=O)c2cc(-c3ccc(NCCN(C)C)c(C)n3)nc3ccc(Cl)cc23)on1 [Compound 590] | 403 | 336 | 734 | 390 | –
CCc1ncc(CN(C)C(=O)c2nc(-c3cc(-c4ncc[nH]4)n(C)n3)nc3ccc(Cl)cc23)n1C [Compound 631] | – | – | – | – | IC50 [1, 7]: 125 nM; IC50 [2, 8]: 16.7 nM; IC50 [3, 9]: 194 nM; IC50 [4, 10]: 8.8 nM
CCn1ncc(CN(C)C(=O)c2cc(-c3cc(C(=O)NC)n(C)n3)nc3ccc(Cl)cc23)c1C [Compound 447] | 51.4 | 12.1 | 2 | 68.8 | –
CCn1ncc(CN(C)C(=O)c2nc(-c3ccc4nc[nH]c4c3Cl)nc3ccc(COC)cc23)c1C [Compound 89] | 1600 | 180 | 1000 | 1200 | –
CCCOc1ccc(-c2nc(C(=O)N(C)Cc3cnn(CC)c3C)c3cc(Cl)ccc3n2)cc1Cl [Compound 157] | 9600 | 3200 | 2800 | – | IC50 ([3]; high throughput proliferation): 5600 nM
CCn1nc(C)c(CN(C)C(=O)c2cc(-c3ccc(NCCNC)c(C)n3)nc3ccc(Cl)cc23)c1C [Compound 557] | 18400 | 14100 | 5200 | 6800 | –
CCn1ncc(CN(C)C(=O)c2nc(-c3ccc(OCCNC)c(Cl)c3)nc3ccc(Cl)cc23)c1C [Compound 21] | 180 | 31 | 48 | 120 | –
CCn1ncc(CN(C)C(=O)c2nc(-c3cnc4n[nH]c(N)c4c3)nc3ccc(Cl)cc23)c1C [Compound 621] | 222 | 216 | 397 | 391 | –
CCn1ncc(CN(C)C(=O)c2cc(-c3ccc(NCCNC)cn3)nc3ccc(Cl)cc23)c1C [Compound 30] | 230 | 56 | 12 | 310 | –
CCn1ncc(CN(C)C(=O)c2cc(-c3ccc(OCCNC)c(Cl)c3)nc3ccc(P(C)(C)=O)cc23)c1C [Compound 407] | – | 2100 | 700 | – | IC50 [1, 6]: 18000 nM; IC50 ([3]; high throughput proliferation, 647V cells): 7400 nM
CCn1ncc(CN(C)C(=O)c2nc(-c3cc(C)nc(NCCN(C)C)c3)nc3ccc(Cl)cc23)c1C [Compound 469] | 56.1 | 19.3 | 10.9 | 29.2 | –
CCn1ncc(CN(C)C(=O)c2nc(-c3cc(Cl)cc(CNC)c3)nc3ccc(Cl)cc23)c1C [Compound 82] | 1200 | 100 | 460 | 580 | –
CCn1ncc(CN(C)C(=O)c2cc(-n3ncc4c3CNCC4)nc3ccc(Cl)cc23)c1C [Compound 186] | 20000 | 114000 | 64000 | 7800 | –

The next lines start with results.

IC50 ([1]; H3K18Ac in-cell western) [nM] | IC50 ([2]; SAMDI) [nM] | IC50 ([4]; EP300, SAMDI) [nM] | SMILES | IC50 [3, 5] [nM] | further results
53.5 | 6.92 | 2.4 | CCn1ncc(CN(C)C(=O)c2cc(-c3cc(-c4ncc[nH]4)n(C)n3)nc3ccc(Cl)cc23)c1C [Compound 542] | 56.6 | –
5100 | 7500 | 7100 | CCn1ncc(CN(C)C(=O)c2nc(-c3ccnc(NC(C)=O)c3)nc3ccc(Cl)cc23)c1C [Compound 135] | 6700 | –
– | 10000 | 4400 | CCn1ncc(CN(C)C(=O)c2nc(-n3nc(N)c4ccc(C)cc43)nc3ccc(Cl)cc23)c1C [Compound 419] | – | IC50 [1, 6]: 5800 nM; IC50 ([3]; Homo sapiens, 647-V, high throughput proliferation, 647V cells): 410 nM
80.4 | 10 | 7.1 | CCn1ncc(CN(C)C(=O)c2cc(-c3ccc(NCCO)c(C)n3)nc3ccc(Cl)cc23)c1C [Compound 521] | 110 | –
2500 | 3900 | 1400 | CCn1ncc(CN(C)C(=O)c2nc(-c3cnc[nH]3)nc3ccc(Cl)cc23)c1C [Compound 109] | 3500 | –
1720 | 3510 | 2700 | CCn1ncc(CN(C)C(=O)c2nc(-c3cnnc(N)c3)nc3ccc(Cl)cc23)c1C [Compound 434] | 2250 | –
57 | 12 | 3.7 | CCn1ncc(CN(C)C(=O)c2nc(-c3cc(Cl)c4nc[nH]c4c3)nc3ccc(COC)cc23)c1C [Compound 4] | 37 | –
332 | 104 | 903 | CCn1ncc(CN(C)C(=O)c2cc(-c3ccc(NCCN(C)C)c(OC)c3)nc3ccc(Cl)cc23)c1C [Compound 585] | 177 | –
20000 | 98000 | 56000 | CCn1ncc(CN(C)C(=O)c2cc(-c3cn(C)c(OC)n3)nc3cc(Cl)ccc23)c1C [Compound 185] | 20000 | –
81.4 | 16 | 4 | CCn1ncc(CN(C)C(=O)c2nc(-c3cc(C)c4c(N)n[nH]c4c3)nc3ccc(COC)cc23)c1C [Compound 524] | 163 | –
314 | 59.8 | 30.1 | CCc1nc(-c2cc(C(=O)N(C)Cc3cnc(CC)n3C)c3cc(COC)ccc3n2)ccc1NCCNC [Compound 486] | 89.5 | –
2800 | 160 | 110 | CCn1ncc(CN(C)C(=O)c2nc(-c3cc(Cl)cc(NCCCN(C)C(=O)OC(C)(C)C)c3)nc3ccc(Cl)cc23)c1C [Compound 115] | 4400 | –
888 | 920 | 974 | CCn1ncc(CN(C)C(=O)c2nc(-c3cc(C#N)c4nc[nH]c4c3)nc3ccc(COC)cc23)c1C [Compound 475] | 757 | –
3890 | 148 | 36.8 | CCc1ncc(CN(C)C(=O)c2nc(-c3cc(C)cc(NC4CCNC4)c3)nc3ccc(COC)cc23)n1C (stereo not shown) [Compound 501] | 1150 | –
6530 | 22800 | 14500 | CCn1ncc(CN(C)C(=O)c2cc(-c3cnc(N)c(C)n3)nc3ccc(Cl)cc23)c1C [Compound 474] | 12800 | –
46.5 | 6.42 | 2 | CCc1ncc(CN(C)C(=O)c2nc(-c3cc(C)c4c(N)[nH]nc4c3)nc3ccc(Cl)cc23)n1C [Compound 526] | 72 | –
1410 | 104 | 880 | CCN(Cc1cnn(CC)c1C)C(=O)c1cc(-c2ccc(NCCNC)c(C)n2)nc2ccc(Cl)cc12 [Compound 456] | 626 | –
